Results published in patent US9796676B2, “Honeybee repellents and uses thereof” (Inscent, Inc., priority 2013, dated 2017).

Key:
[1] = tested on: Apis mellifera Carniolan foraging worker honeybees; experiment: Choice test in a free-flight box apparatus; format: in vivo; conditions: for P (probability that a honeybee will return to a test dish, nP divided by n): control likelihood without compound 47.5%; for nP (number of tests a honeybee returned to a preferred test dish): free-flight box, 2 μL of 0.05-0.5% compound on filter papers under honey dish
Text: To determine whether living honeybees will choice to move towards a source of a candidate compound, these compounds will be assayed using a choice test in a free-flight box apparatus.
All tests will be done in a free-flight box apparatus. The apparatus comprises a 244 cm long×46 cm deep×30 cm high clear plastic box including two equally-sized independent testing chambers, each with 10 cm diameter air inlets that admit filtered room air, separated by a smaller central chamber with a screened air outlet to each testing chamber. Air can be pulled through the sealed box via a 10 cm diameter duct from the air outlet using an AQE Fume Fighter 500 fume extractor (BPA Air Quality Solutions, LLC, Charleston, S.C.), which removes the test odors using activated charcoal and HEPA filters. The box is housed in an environmentally controlled room with overhead illumination timed to correspond to the current ambient light cycle including 2 additional sets of lights timed to approximate crepuscular lighting conditions. The bottom of the apparatus will be lined with clean absorbent paper marked with a 4×9 grid pattern, forming 12 cm×12 cm squares with marked coordinates.
Apis mellifera Carniolan foraging worker honeybees will be obtained from a local apiary (typically 60 bees per shipment). Thirty honeybees will be put into each testing chamber and will be allowed to acclimate for 24 hours with food and water freely available. At the beginning of each test day all food will be removed from the test chamber, but water will be continually available throughout all tests. For each test, approximately 0.3 g of organic, raw orange blossom honey will be added to each clean small plastic weigh boat (Cole-Palmer). The honey boats will be placed in small plastic culture dishes, which will be distributed in the marked squares in the chambers. The positions of the dishes on the grid for a set of trials will be chosen to avoid the bees' preferred resting area so that they will have to find the food actively, but the same dish positions will be maintained for a given set of trials. We will use seven dishes of honey: six to which the bees will have access and a seventh that will have a screened lid. The honey in each boat will be weighed on an analytical balance before and after the test, with the screened sample as a control for evaporative loss. The fume extractor will be left off during the experimental trails, and will be turned on to clear the air after the test dishes are covered and removed from the chamber at the end of each trial.
Based on the observation that bees tend to return to dishes in the same position where they have fed before, each set of trials with each group of bees began with “Pattern Identification” tests to see which dishes lose the most weight, reflecting the most feeding. Once bees are consuming an acceptable amount in 10-15 min, typically in 1-2 trials, a set of test compound trials will begin. The test compound will be pipetted onto pieces of filter paper placed on the dish bottom below the boat containing a fresh, weighed honey sample so that the test compound will be inaccessible to the bees. We used 2 μL of a candidate compound at a concentration of 0.05-0.5%, in Triton X-100 or paraffin oil, on each of four pieces of filter paper per dish. The test-solution dishes will be set at the same positions as the one or two dishes favored in the preceding Pattern Identification trial. To eliminate interference from the solvent, the other dishes without the test substance will contain the same volume of the appropriate solvent on filter papers as the test solution dishes. The bees will be allowed to feed for 10-15 minutes. Bee movements will be recorded by a small, wide-angle digital video camcorder (HD Hero 960; GoPro, Halfmoon Bay, Calif.) placed on a tripod in front of the test chamber. […]

[2] = cited from earlier work
OBP2 = experiment: Fluorescent-quench ligand-protein-binding assay (OBP2 binding); parameters: species or system Apis mellifera
Text: To identify a honeybee repellent disclosed herein, candidate compounds were screened based upon the fact that 2-heptanone is an established repellent of bees. 2-heptanone is thought to mediate its behavioral response through binding to a specific odorant-binding protein called OBP2. […] Such assays are generally known in the art. See, e.g., Briand, et al., Ligand-Binding Properties and Structural Characterization of a Novel Rat Odorant-Binding Protein Variant, Eur. J. Biochem. 267(10): 3079-3089 (2000); Briand, et al., Ligand Binding and Physico-Chemical Properties of ASP2, A Recombinant Odorant-Binding Protein From Honeybee (Apis mellifera L.), Eur. J. Biochem. 268(3): 752-760 (2001); Briand, et al., Characterization of a Chemosensory Protein (ASP3c) from Honeybee (Apis mellifera L.) as a Brood Pheromone Carrier, Eur. J. Biochem. 269(18): 4586-4596 (2002), each of which is hereby incorporated by reference in its entirety.

[3] = tested on: Apis mellifera Carniolan foraging worker honeybees; experiment: Proboscis extension response (PER) assay with bees conditioned to 2-heptanone; format: in vivo; conditions: 0.5% compound in Triton X-100/water on filter paper, 4 s exposure; only bees giving PER with 2-heptanone and not with water or 15% Triton X-100 controls counted
Method: To determine whether a living honeybee can recognize a candidate compound, these compounds were tested using a proboscis extension response (PER) assay using classical conditioning approaches. Proboscis extension response conditioning is a case of appetitive learning, in which bees learn to associate odor stimuli with sucrose reward in the laboratory. In this case, bees were conditioned to produce a PER to 2-heptanone as the conditioned stimulus and a sugar reward as the unconditioned stimulus. These trained bees were then exposed to an odor pulse of a candidate compound to test whether a candidate compound would also produce a PER. If the candidate compound “mimics” 2-heptanone then the honeybee will extend its proboscis.
For conditioning procedures, Apis mellifera Carniolan foraging worker honeybees were obtained from a local apiary (typically 60 bees per shipment). The honeybees were held overnight in insect cages with food and water freely available, in an environmentally controlled room on a light cycle similar to the ambient cycle at the time of the assay.
For conditioning procedures, all tests were done in an odorant delivery apparatus set inside a fume hood. The apparatus comprised a set of open-ended, horizontal, 3 cm diameter by 10 cm long plastic tubes. Each tube was designed where a honeybee could be positioned at the distal end of a tube, with the opening at the other end of the tube located proximal to an inlet of the fume hood. To deliver an odorant, room air was pumped by a diaphragm pump through a particle filter via 0.25 inch plastic tubing at approximately 0.7 m/sec. The air flow passes into the headspace above an odorant (0.5% [v/v] 2-heptanone dissolved in odorless light paraffin oil) contained in a 100 mL bottle. The headspace air then passes through another plastic tube to a manifold of 4-way valves, each of which was attached near the proximal end of a plastic tube containing a bee. Each bee was exposed separately for a desired time period to the odorant by opening and closing the appropriate valve. When each valve was closed, the odor was flushed away immediately by the continuous fume hood air stream.
To train a honeybee to respond to a conditioned and unconditioned stimuli, bees were placed, without anesthesia, in individual 1.5 mL micro-centrifuge holding tubes and held overnight without access to food or water. The holding tubes containing the starved bees were placed in racks in groups of eight. One rack at a time was placed behind the odorant delivery apparatus so that each bee's head is centered at the distal end of a horizontal plastic tube. Each bee was exposed to the 2-heptanone odorant alone for four seconds, and then while being fed an 80% sucrose solution for and additional three seconds. The sucrose solution was delivered on a piece of saturated filter paper held in forceps. […] Positive and negative responses were recorded. A positive PER was scored when a bee extended its proboscis before the sucrose appeared. In a typical trial, 48 individual bees were subjected to conditioning.
After conditioning, honeybees were tested with the candidate compounds the same day or on the following day or, most commonly, both. When held overnight, bees were fed with sucrose and kept in their holding tubes. When tested the day after training, bees were given one or more rounds of conditioning with 2-heptatone to refresh their memories. Candidate compounds stocks were made at 5% (w/v) in polyoxyethylene octyl phenyl ether (TRITON® X-100), a non-ionic detergent/surfactant, and stored at 4° C. […] Test solutions were made fresh daily by mixing stock solutions with water for a final compound concentration of 0.5%. A solution of 0.5% 2-heptanone in paraffin oil was used as a positive control.

Compound: CCCCCC(C)=O [2-heptone, 2-Heptanone, reference compound]
- Z-score ([1]; Z-test vs control likelihood 47.5%, alpha=10%, critical Z-score 1.282, positive = attractant, negative = repellant): −2.256
- P (probability that a honeybee will return to a test dish, nP divided by n) [1]: 0.425
- nP (number of tests a honeybee returned to a preferred test dish) [1]: 217
- Solubility in water [2]: very slightly soluble

Compound: O=C1NC(=S)SC1=Cc1ccc(N2CCOCC2)c([N+](=O)[O-])c1 [compound 86, 5-[4-(4-morpholinyl)-3-nitrobenzylidene]-2-thioxo-1,3-thiazolidin-4-one]
- OBP2 binding characteristic of compound (OBP2): Moderate (Moderate, indicates that 50% or less of the compound bound to OBP2.)
- 2-heptanone positive bees testing positive to compound [3]: 38.1%
- P (probability that a honeybee will return to a test dish, nP divided by n) [1]: 0.25
- nP (number of tests a honeybee returned to a preferred test dish) [1]: 8

Compound: CCc1ccc(O)c(N=Cc2cc(I)cc(I)c2O)c1 [compound 89, 2-{[(5-ethyl-2-hydroxyphenyl)imino]methyl}-4,6-diiodophenol]
- OBP2 binding characteristic of compound (OBP2): Moderate (Moderate, indicates that 50% or less of the compound bound to OBP2.)
- 2-heptanone positive bees testing positive to compound [3]: 33.3%
- P (probability that a honeybee will return to a test dish, nP divided by n) [1]: 0.278
- nP (number of tests a honeybee returned to a preferred test dish) [1]: 5
